# Measured values: patent US5574071A, “Method of lowering cholesterol” (Hoffmann-La Roche Inc., priority 1993, dated 1996)
# Where a name gives a salt, the structure may show the parent alone.
# Tested on: not listed separately
# Test: Toxicity (LD50 per os in the mouse)
# Conditions: in vivo, po
row,SMILES,LD50
1,CC(C)=CCCC(=O)c1ccc(-c2ccc(CN(C)C)cc2)cc1 [Compound 20],1250 to 2500 mg/kg

# Tested on: LDL receptor in human hepatoma cells (Hep G2)
# Test: Inhibition of cholesterol synthesis in human hepatoma cells (Hep G2), determined by stimulation of LDL receptors (ELISA, C7-LDL antibody)
# Format: cell-based
# Conditions: HepG2, Table B, versus untreated cells, read-out: EC50 (concentration which increases the activity of the LDL receptor by 50% in comparison to the control)
# Method: Thus, the inhibition of cholesterol :synthesis in human hepatoma cells (Hep G2) was determined on the basis of the stimulation of the LDL receptors induced in parallel. The cells were placed in microtitre plates and treated with the cholesterol synthesis inhibitor. The concentration of the LDL receptor is measured by ELISA methodology, with the C7-LDL antibody being used as the primary antibody. The EC50 values in nM/I in Table B hereinafter correspond to the concentration of cholesterol synthesis inhibitor which increases the activity of the receptor by 50% in comparison to the control, that is, untreated cells.
row,EC50,SMILES
1,51 nM,"C=CCN(C)CCCCCCOc1ccc(C(=O)c2ccc(Br)cc2)cc1 [Example 9a, [4-[6-(allyl-methyl-amino)-hexyloxy]-phenyl]-(4-bromo-phenyl)-methanone hydrobromide]"
2,203 nM,"C=CCN(C)CCCCCCOc1ccc(C(=O)c2ccc(Br)cc2)cc1F [Example 9c, [4-[6-(ally-methyl-amino)-hexyloxy]-3-fluoro-phenyl]-(4-bromo-phenyl)-methanone]"
3,57 nM,"C=CCN(C)CCCCCCOc1ccc(C(=O)c2ccc(Br)cc2)c(F)c1 [Example 9d, [4-[6-(allyl-methyl-amino)-hexyloxy]-2-fluoro-phenyl]-(4-bromo-phenyl)-methanone]"
4,10 nM,"C=CCN(C)C/C=C/COc1ccc(C(=O)c2ccc(Br)cc2)cc1F [Example 9f, (E)-[4-[4-(allyl-methyl-amino)-but-2-enyloxy]-3-fluoro-phenyl]-(4-bromo-phenyl)-methanone]"
5,177 nM,"C=CCN(C)C/C=C/COc1ccc(C(=O)CCCC(C)C)cc1 [Example 9g, (E)-I -[4-[4-(allyl-methyl-amino)-but-2-enyloxy]-phenyl]-5-methyl-hexan-l-one]"
6,94 nM,"C=CCN(C)C/C=C/COc1ccc(C(=O)c2ccc(I)cc2)cc1 [Example 9h, (E)-[4-[4-(allyl-methyl-amino)-but-2-enyloxy]-phenyl]-(4-iodo-phenyl)-methanone]"
7,19 nM,"C=CCN(C)C/C=C/COc1ccc(C(=O)c2ccc(C#N)cc2)cc1F [Example 9j, (E)-[4-[4-(allyl-methyl-amino)-but-2-enyloxy]-3-fluoro-benzoyl]-benzonitrile]"
8,220 nM,"C=CCN(C)C/C=C/COc1ccc(C(=O)c2c(F)cccc2F)cc1F [Example 9l, (E)-[4-[4-(allyl-methyl-amino)-but-2-enyloxy]-3-fluoro-phenyl]-(2,6-difluoro-phenyl)-methanone]"
9,34 nM,"C=CCN(C)C/C=C/COc1ccc(C(=O)CCC=C(C)C)cc1 [Example 9m, (E)-I -[4-[4-(allyl-methyl-amino)-but-2-enyloxy]phenyl]-5-methyl-hex-4-en-l-one]"
10,133 nM,"C=CCN(C)C/C=C/COc1ccc(C(=O)c2ccc(Br)cc2)c(F)c1 [Example 9n, (E)-[4-[4-(allyl-methyl-amino)-but-2-enyloxy]-2-fluoro-phenyl]-(4-bromo-phenyl)-methanone]"
11,98 nM,"C=CCN(C)C/C=C/COc1ccc(CC(=O)CCC=C(C)C)cc1F [Example 9p, (E)-1-[4-[4-(allyl-methylamino)-but-2-enyloxy]-3-fluoro-phenyl]-6-methyl-hept-5-en-2-one]"
12,222 nM,"C=CCN(C)C/C=C/COc1ccc(CC(=O)c2ccc(Br)cc2)cc1 [Example 9r, (E)-2-[4-[4-(allyl-methyl-amino)-but-2-enyloxy)-phenyl]-1-(4-bromo-phenyl)-ethanone]"
13,122 nM,"CCN(C)C/C=C/COc1ccc(C(=O)c2ccc(Br)cc2)cc1 [Example 9s, (E)-(4-bromo-phenyl)-[4-[4-(ethyl-methyl-amino)-but-2-enyloxy]-phenyl]-methanone hydrobromide]"

# Second part, the molecule before the results:
row,SMILES,EC50
1,"C=CCN(C)CC=CCOc1ccc(C(=O)c2ccc(Br)cc2)cc1 [Compound 1, trans-4-[[4-(allymethylamino)-2-butenyl]oxy]-4'-bromo-benzophenone]",50 nM
2,"C=CCN(C)Cc1ccc(-c2ccc(C(=O)c3ccc(C#N)cc3)cc2)cc1 [Compound 2, p-[[4'-[(allylmethylamino)methyl]-4-biphenylyl]carbonyl]-benzonitrile]",43 nM
3,"C=CCN(C)CC=CCOc1ccc(C(=O)c2ccc([N+](=O)[O-])cc2)cc1 [Compound 3, trans-4-[[4-(allylmethylamino)-2-butenyl]oxy]-4'-nitro-benzophenone]",63 nM
4,"CN(C)Cc1ccc(-c2ccc(C(=O)c3ccc([N+](=O)[O-])cc3Cl)cc2)cc1 [Compound 4, 2-chloro-4-nitrophenyl 4'-[(dimethylamino)methyl]-4-biphenylyl ketone]",153 nM
5,"C=CCN(C)CC=CCOc1ccc(C(=O)c2ccc(Cl)cc2Cl)cc1 [Compound 7, trans-4-[[4-(allymethylamino)-2-butenyl]oxy]-2',4'-dichloro-benzophenone]",82 nM
